Measurements from the supplement of paper PMC13207355.

Tests used:
Settings in all cases: exposure time: 72 h
[1] = test system: E31 (patient-derived glioblastoma stem cells of proneural subtype); assay: surviving fraction (nuclei count normalised to DMSO); higher = more cells surviving (less toxic)
[2] = test system: E57 (patient-derived glioblastoma stem cells of mesenchymal subtype); assay: as above
[3] = test system: E34 (patient-derived glioblastoma stem cells of proneural subtype); assay: as above
[4] = test system: E21 (patient-derived glioblastoma stem cells of mesenchymal subtype); assay: as above
[5] = test system: E28 (patient-derived glioblastoma stem cells of classical subtype); assay: as above
[6] = test system: E13 (patient-derived glioblastoma stem cells of classical subtype); assay: as above
[7] = test system: FT3469 (normal neural stem cell line); assay: as above
[8] = test system: E31; assay: phenotypic distance (Euclidean, principal components) from DMSO controls (arbitrary units); higher = stronger morphological change
[9] = test system: E57; assay: as above
[10] = test system: E34; assay: as above
[11] = test system: E21; assay: as above
[12] = test system: E28; assay: as above
[13] = test system: E13; assay: as above
[14] = test system: FT3469; assay: as above
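For phenotypic distance (Euclidean, principal components) from DMSO controls in this document: cell Painting imaging in 384-well plates, CellProfiler features reduced to at least 20 principal components, Euclidean distance versus same-plate DMSO vehicle wells (0.1% v/v), median over six images per well.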
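For surviving fraction (nuclei count normalised to DMSO) in this document: nuclei counted by high-content imaging of Hoechst-stained cells in laminin-coated 384-well plates, relative to 0.1% DMSO vehicle wells, with staurosporine as cell-death control.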

CCN(CC)Cc1ccc(C(=O)N(CCc2ccccc2OC)[C@@H]2CCNC2)cc1
Settings | phenotypic distance | surviving fraction
[1], 4.1 nM | – | 1.06
[1], 12.3 nM | – | 1.02
[1], 37 nM | – | 1.01
[1], 111.1 nM | – | 1.19
[1], 333.3 nM | – | 0.914
[1], 1000 nM | – | 1.11
[1], 3000 nM | – | 0.62
[2], 4.1 nM | – | 1.16
[2], 12.3 nM | – | 1.03
[2], 37 nM | – | 1.08
[2], 111.1 nM | – | 1.03
[2], 333.3 nM | – | 1.06
[2], 1000 nM | – | 1.05
[2], 3000 nM | – | 0.433
[3], 4.1 nM | – | 0.806
[3], 12.3 nM | – | 1
[3], 37 nM | – | 0.941
[3], 111.1 nM | – | 1.12
[3], 333.3 nM | – | 1.05
[3], 1000 nM | – | 0.786
[3], 3000 nM | – | 0.859
[4], 4.1 nM | – | 0.952
[4], 12.3 nM | – | 0.993
[4], 37 nM | – | 1
[4], 111.1 nM | – | 0.952
[4], 333.3 nM | – | 0.919
[4], 1000 nM | – | 0.996
[4], 3000 nM | – | 0.663
[5], 4.1 nM | – | 0.904
[5], 12.3 nM | – | 1.11
[5], 37 nM | – | 1.04
[5], 111.1 nM | – | 1.12
[5], 333.3 nM | – | 1.03
[5], 1000 nM | – | 1.13
[5], 3000 nM | – | 0.601
[6], 4.1 nM | – | 1.08
[6], 12.3 nM | – | 0.868
[6], 37 nM | – | 0.939
[6], 111.1 nM | – | 0.916
[6], 333.3 nM | – | 0.929
[6], 1000 nM | – | 0.865
[6], 3000 nM | – | 0.251
[7], 4.1 nM | – | 0.944
[7], 12.3 nM | – | 1.04
[7], 37 nM | – | 0.955
[7], 111.1 nM | – | 1.11
[7], 333.3 nM | – | 1.21
[7], 1000 nM | – | 1.35
[7], 3000 nM | – | 1.18
[8], 4.1 nM | 0.43 | –
[8], 12.3 nM | 0.532 | –
[8], 37 nM | 0.762 | –
[8], 111.1 nM | 0.583 | –
[8], 333.3 nM | 0.607 | –
[8], 1000 nM | 1.18 | –
[8], 3000 nM | 5.34 | –
[9], 4.1 nM | 0.619 | –
[9], 12.3 nM | 0.993 | –
[9], 37 nM | 0.517 | –
[9], 111.1 nM | 0.737 | –
[9], 333.3 nM | 0.532 | –
[9], 1000 nM | 0.717 | –
[9], 3000 nM | 7.97 | –
[10], 4.1 nM | 0.768 | –
[10], 12.3 nM | 0.429 | –
[10], 37 nM | 0.97 | –
[10], 111.1 nM | 1.09 | –
[10], 333.3 nM | 1.04 | –
[10], 1000 nM | 0.887 | –
[10], 3000 nM | 1.55 | –
[11], 4.1 nM | 0.354 | –
[11], 12.3 nM | 0.793 | –
[11], 37 nM | 0.496 | –
[11], 111.1 nM | 0.901 | –
[11], 333.3 nM | 4.65 | –
[11], 1000 nM | 0.624 | –
[11], 3000 nM | 4.48 | –
[12], 4.1 nM | 0.583 | –
[12], 12.3 nM | 0.51 | –
[12], 37 nM | 0.826 | –
[12], 111.1 nM | 0.771 | –
[12], 333.3 nM | 0.874 | –
[12], 1000 nM | 0.721 | –
[12], 3000 nM | 4.84 | –
[13], 4.1 nM | 0.886 | –
[13], 12.3 nM | 0.664 | –
[13], 37 nM | 0.732 | –
[13], 111.1 nM | 0.746 | –
[13], 333.3 nM | 0.975 | –
[13], 1000 nM | 0.586 | –
[13], 3000 nM | 6.33 | –
[14], 4.1 nM | 0.348 | –
[14], 12.3 nM | 0.837 | –
[14], 37 nM | 0.511 | –
[14], 111.1 nM | 0.773 | –
[14], 333.3 nM | 0.915 | –
[14], 1000 nM | 1.23 | –
[14], 3000 nM | 2.24 | –
